Data published in patent US5521061A, “Enhancement of probe signal in nucleic acid-mediated in-situ hybridization studies” (Aprogenex, Inc., priority 1992, dated 1996).

Legend:
Hepg 2 cells = assay: Slide in situ hybridization, DMSO plus one additional compound (Example 2), HYR probe; format: cell-based, human; conditions: 10% (v/v) additional compound with 9% DMSO; slide rating x 0.5, water control = 2; average of four experiments
Experimental: Slide in situ Cell Preparation and Hybridization Protocol
1) Cells were suspended in a fixative (3 vol ethanol plus 1 vol methanol) and transferred to glass slides by centrifugation using a Cytospin apparatus.
2) The assay solution (consisting of the hybridization cocktail HC alone or mixed with a compound or compounds being tested as an enhancer) with the DNA probe (25 ul) was placed over the cells and covered with a coverslip.
3) The slide was heated at 90° C. for 5 minutes for DNA denaturation, then incubated at 46° C. for 30 minutes for hybridization.
4) Cells were washed once with the wash solution #1, which was equilibrated at 42° C. Then cells were washed ten times with wash solution #2, which was equilibrated at 42° C.
5) Mounting solution (50% glycerol (v/v) in 1×PBS plus the nuclear stain Hoechst, (#33258; 1 ug/ml) was placed on the cells and covered with a coverslip.
6) The hybridization signal was observed under an Olympus BH10 microscope with fluorescent capabilities using a rhodamine derivative filters (excitation wavelength of 567 nm, emission wavelength of 584 nm).
The inclusion of DMSO in an in situ assay solution increased the permeation of the nucleic acid probes into the cells and gave hybridization signal in over 95% of the cells. In this Example, we show the effect of adding, in addition to DMSO, 10 percent (v/v) of an additional compound to the assay solution. The additional compounds added were: squalane (an aliphatic alkane), dodecyl alcohol (an alcohol), beta-cyclodextrin (a sugar), isopropyl palmitate (a fatty acid ester), 1,2, propanediol (an alcohol), pyrrolidinone (a lactam) and hexamethyldisiloxane (an organic silane).
In this Example, the hybridization cocktail consisted of nine volumes of HC-DMSO plus one volume of an additional compound. In the control sample, one volume of water was added instead of one volume of additional compound. As a result, in all samples, the concentration of DMSO in the cocktail was 9 percent (v/v).
The Slide In Situ Cell Preparation and Hybridization protocol was followed. The cells used were Hepg 2 cells. The probe used was an HYR probe specific for human Y chromosome α-satellite DNA repeated sequences; at its 5' end, via an Aminolink linker molecule, the probe was linked to a Texas Red moiety. A signal intensity of 4 was assigned to the slide in which the assay solution was HC plus 10% DMSO (control slide) and all other slides were rated 1, 2, 3 or 4 in comparison to the control slide, depending on whether the intensity was 1, 2, 3, or 4 times that of the control slide, respectively.
The results are an average of four independent experiments.

Hela cells = assay: Liquid in situ hybridization with flow cytometry, DMSO plus additional compound (Example 4), 28S RNA and NR probes; format: cell-based; conditions: for 28S RNA Probe, mean LFL1 / NR Probe, mean LFL1 / Ratio 28S RNA/NR (ratio of mean LFL1): 10% additional compound with 9% DMSO; for 28S RNA Probe, mean LFL1: FITC 28S RNA probe, water control 6.070, average of four experiments; for NR Probe, mean LFL1: FITC NR probe (non-specific binding and autofluorescence), water control 0.137; for Ratio 28S RNA/NR (ratio of mean LFL1): water control 44; for Signal brightness compared to nine percent DMSO alone: additional compound in combination with nine percent DMSO
From the text: (§1) A Coulter Profile II flow cytometer was used for flow cytometry. With FITC as the probe dye, the filter for LFL3 was a 635 nm long pass filter and the filter for LFL1 was a 540 bp filter; the excitation wavelength was 488 nm. PMT1 and PMT3 settings were adjusted as required. A typical useful setting when fluorescein is the dye moiety is to have a PMT1 setting of 1100, a PMT3 setting of 900, and color compensation (PMT1, PMT3) of 15 percent.
(§2) Liquid in Situ Cell Preparation and Hybridization Protocol
(§3) 1. Cells were fixed in solution F, then resuspended in 2x SSC.
(§4) 2. The cells were spun out of solution and resuspended in an assay solution (consisting of the hybridization cocktail HC alone or in combination with a compound or compounds being tested as an enhancer.)
(§5) 3. After 30 min. at 42° C., the cells were washed in wash solution #1 preheated to 42° C. by centrifuging them out of the assay solution.
(§6) 4. Cells were next washed in wash solution #2 preheated to 42° C.
(§7) 5. Cells were resuspended in a 1X PBS solution containing 0.002% trypan blue as a counterstain.
(§8) 6. Cells were run on a flow cytometer and a "Count vs. LFL1" histogram was generated. ("Count" refers to cell count.) This histogram was used as the basis for determining the mean LFL1.
The effect on probe signal intensity of adding, in addition to DMSO, additional compounds to the assay solution was determined in an in situ liquid hybridization assay. The data was analyzed by flow cytometry.
The Liquid In Situ Cell Preparation and Hybridization Protocol was followed. The cells used were Hela cells. The probes used were a 28S RNA probe (SEQ ID NO: 1) and an NR probe.
The 28S RNA probe (SEQ ID NO: 1) is a target-specific probe specific for ribosomal RNA fluorescence obtained with it represents the sum of fluorescence from target-bound probe, non-specifically bound probe and autofluorescence from cellular molecules. The NR probe (SEQ ID NO: 2) is specific for a plant nucleic acid sequence and, in the current Example, the fluorescence obtained with it represent the sum of fluorescence from non-specifically bound probe and autofluorescence.
(§9) In this experiment, the hybridization cocktail consisted of nine volumes of HC-DMSO plus one volume of additional compound. In the control sample, one volume of water replaced the one volume of additional compound. As a result, in all samples, the concentration of DMSO was 9 percent (v/v).
The ratio, 28S/NR, is the ratio of the mean LFL1 observed with the 28S RNA probe (SEQ ID NO: 1) to the mean LFL1 observed with the NR probe (SEQ ID NO: 2). The results in the "28S RNA probe" and "NR probe" columns give the mean LFL1 observed with the 28S RNA and NR probes, respectively (SEQ ID NO: 1 and SEQ ID NO: 2, respectively).

α-satellite DNA = assay: Liquid in situ hybridization with flow cytometry, DMSO plus squalane plus additional compound (Example 5), α-satellite DNA and NR probes; format: cell-based; conditions: for NR Probe, mean LFL1 / α-SAT Probe, mean LFL1 / Ratio α-SAT/NR (ratio of mean LFL1): 5% additional compound with 5% squalane and 9% DMSO; for NR Probe, mean LFL1: DMSO-only control 0.175; for α-SAT Probe, mean LFL1: DMSO-only control 3.829; for Ratio α-SAT/NR (ratio of mean LFL1): DMSO-only control 22; for Increase of DNA probe signal intensity compared to 9% DMSO alone: DMSO plus squalane plus the additional compound
From the text: as §1, §2, §3, §4, §5, §6, §7, §8
The Liquid In Situ Cell Preparation and Hybridization Protocol was followed.
The "α-satellite" DNA probe is a target specific probe specific α-satellite DNA. Fluorescence obtained with it represents the sum of fluorescence from target-bound probe, non-specifically bound probe and autofluorescence from cellular molecules.
The effect of a combination of DMSO and squalane on the probe signal was measured as was that combination further enhanced with a third compound.
In this Example, in all but two cases, the hybridization cocktail consisted of 9 volumes of HC-DMSO, a half volume of squalane, and a half volume of an additional compound. In one case, the additional compound was replaced by water, so that the hybridization compound consisted of 9 volumes of HC-DMSO, a half volume of squalane, and a half volume of water. In the control sample, the cocktail consisted of nine volumes of HC-DMSO and one volume of water. As a result, in all samples, there was 9 percent DMSO (v/v). When present, squalane was present at 5 percent. When present, the additional compound was present at 5%.
The ratio, α-SAT/NR, is the ratio of the mean LFL1 for the α-satellite DNA probe ([…]) to the mean LFL1 for the NR probe.

[1] = system: Human female white blood cells (karyotype XX); assay: Signal enhancers in the mounting solution after in situ hybridization (Example 6), HXR probes, fluorescent microscope; format: cell-based; conditions: one volume compound plus 9 volumes mounting solution; rhodamine HXR probes; water control = 1
Experimental: After the in situ hybridization step, the cells were washed and then modified mounting solution was added and cells were observed under the microscope for fluorescence signal. Modified mounting solution was 9 volumes of mounting solution and one volume of additional compound, which was the compound being tested for its ability to be a signal enhancer. Mounting solution consisted of 0.1% 1,4 diphenylamine (antifade) in 50% glycerol (v/v), and nuclear stain Hoechst (#33258; 1 ug/ml).
Human female white blood cells (karyotype XX) were hybridized at 85° C. for 15 minutes with female chromosome HXR probes labelled with a rhodamine fluor. Cells were washed with wash buffers #1 and #2, and then suspended in a modified mounting solution. The additional compound in the modified mounting solution was varied; as a control, water was used as the additional compound. The signal intensity was observed under the fluorescent microscope.

[2] = Precipitation of additional compound from the hybridization cocktail (Example 4); format: physicochemical; conditions: 10 percent in hybridization cocktail (HC-DMSO)
From the text: as §9

Compound | Fluorescent signal (Scale of 1 to 4) (Hepg 2 cells) | 28S RNA Probe, mean LFL1 (Hela cells) | NR Probe, mean LFL1 (Hela cells) | Ratio 28S RNA/NR (ratio of mean LFL1) (Hela cells) | Signal brightness compared to nine percent DMSO alone (Hela cells) | NR Probe, mean LFL1 (α-satellite DNA) | α-SAT Probe, mean LFL1 (α-satellite DNA) | Ratio α-SAT/NR (ratio of mean LFL1) (α-satellite DNA) | Increase of DNA probe signal intensity compared to 9% DMSO alone (α-satellite DNA) | Signal Intensity Scale of 1 to 4 [1] | Signal intensity after precipitation (biphasic mixture) (Hela cells; 10 percent compound with 9% DMSO) | Precipitation from solution [2]
CC(O)CO (centres unmarked) [1,2-propanediol] | 2 | 8.227 | 0.148 | 56 | increased the signal brightness | 0.151 | 5.876 | 39 | 1,8 fold | 4 | – | –
O=C1CCCN1 [2-pyrrolidinone] | 2 | 10.19 | 0.133 | 77 | increased the signal brightness | 0.135 | 10.38 | 77 | 3.5 fold | 3 | – | –
OC[C@H]1O[C@@H]2O[C@H]3[C@H](O)[C@@H](O)[C@@H](O[C@H]4[C@H](O)[C@@H](O)[C@@H](O[C@H]5[C@H](O)[C@@H](O)[C@@H](O[C@H]6[C@H](O)[C@@H](O)[C@@H](O[C@H]7[C@H](O)[C@@H](O)[C@@H](O[C@H]8[C@H](O)[C@@H](O)[C@@H](O[C@H]1[C@H](O)[C@H]2O)O[C@@H]8CO)O[C@@H]7CO)O[C@@H]6CO)O[C@@H]5CO)O[C@@H]4CO)O[C@@H]3CO [beta-cyclodextrin] | 1.5 | 9.593 | 0.135 | 71 | increased the signal brightness | 0.131 | 3.720 | 29 | – | – | – | –
C[Si](C)(C)O[Si](C)(C)C [hexamethyldisiloxane] | 1 | 7.426 | 0.126 | 59 | increased the signal brightness | – | – | – | – | 2 | – | –
CCCCCCCCCCCCCCCC(=O)OC(C)C [isopropyl palmitate] | 1.5 | 8.057 | 0.140 | 58 | increased the signal brightness | 0.117 | 5.988 | 52 | 2.4 fold | 4 | – | –
CCCCCCCC/C=C\CCCCCCCC(=O)O [oleic acid] | 2 | 3.643 | 0.142 | 26 | – | – | – | – | – | – | – | –
CCCCCCCC/C=C\CCCCCCCCO [oleyl alcohol] | 1.5 | 0.731 | 0.136 | – | – | – | – | – | – | 3 | markedly decreased | precipitation from solution
CC(C)=CCC/C(C)=C/CC/C(C)=C/CC/C=C(\C)CC/C=C(\C)CCC=C(C)C [squalene] | – | – | – | – | – | – | – | – | – | 3 | – | –
hydroxypropylcyclodextrin | – | – | – | – | – | – | – | – | – | 2 | – | –
